Measured values reported in paper PMC4884960, “Long lasting MDM2/Translocator protein modulator: a new strategy for irreversible apoptosis of human glioblastoma cells” (Oncotarget, 2016).

Tests used:
[1] = molecular target: T1, human TSPO (Homo sapiens, UniProt P30536); assay: Equilibrium [3H]PK11195 radioligand binding assay in U87MG cell membranes
T1 construct: aliquots of U87MG cell membranes (20 μg of proteins) were incubated with [^3H]PK 11195 (1.5 nM); endogenous in cells; host or cells: U87MG human glioblastoma cell membranes
Experimental: Equilibrium radioligand binding assays were performed essentially as previously described. […] Samples were rapidly filtered under vacuum through GF/C glass fiber filters.

[2] = molecular target: T1, human TSPO; assay: TSPO association/dissociation and competition kinetics with [3H]PK11195; type: binding; settings: for Kd: calculated as ratio of estimated koff and kon
Text: Association and dissociation rate constants for [^3H]
For competition kinetics, the [^3H]

[3] = Stability test in aqueous solution by HPLC; type: physicochemical; settings: 1 μM in PBS with 1% DMSO, within 72 h
Experimental: To test the stability of EB148 in aqueous solution, the compound was dissolved in DMSO and diluted with PBS to the final 1 μM concentration (the amount of DMSO in the final solution was 1%). The solution was maintained in a closed vial and analysed by HPLC at specific times (4, 8, 24, 48 and 72 h) using the following conditions: column Shim-pack VP-ODS 4.6 μm (250 mm × 4.6 mm), isocratic elution with water, flow rate of 1 ml/min, room temperature. The percentage of decomposition was calculated on the base of peak area of the product.

[4] = test system: mitochondria isolated from U87MG cells; assay: Mitochondrial membrane potential (Δψm) dissipation, JC-1 protocol; type: biochemical, human; settings: 1 μM, 20 min; for JC-1 accumulation (Δψm) compared to control untreated mitochondria: isolated mitochondria
Experimental: The Δψm dissipation was assessed using the fluorescent dye 5,59,6,69-tetrachloro1,19,3,39-tetraethylbenzimidazolylcarbocyanine iodide (JC-1). Mitochondria were isolated from U87MG cells using the Mitochondria Isolation Kit (Sigma Aldrich, Milan, Italy) following manufacturer's instructions.
Isolated mitochondria were treated for 20 min with EB54 or EB148 (1 μM). In wash-out experiments, mitochondria were then centrifuged at 11.000 × g for 5 min, washed with fresh saline and suspended in JC-1 buffer not containing the drugs. At the end of treatments, 5 μg of control and treated mitochondria were added to the JC-1 dye. The fluorescence (relative fluorescence units, RFU) of the sample was read in a spectrofluorimeter using a time-drive method (one acquisition each 10 sec, for 10 min), where the excitation wavelength was set to 490 nm and emission wavelength at 590 nm. […] Consequently, mitochondrial depolarization is indicated by a decrease in the orange-red fluorescence intensity.

[5] = molecular target: T2, MDM2/p53 complex (Homo sapiens, UniProt Q00987); assay: Dissociation of native MDM2/p53 complex, sandwich immuno-enzymatic assay on U87MG cell lysates; type: biochemical
T2 construct: endogenous in cells; host or cells: crude lysates of U87MG human glioblastoma cells
Experimental: Cells were washed twice in ice-cold phosphate-buffered saline, collected by centrifugation, and suspended in lysis buffer (20 mM Tris HCl, 137 mM NaCl, 10% glycerol, 1% NONIDET40, 2 mM EDTA, pH 8) containing 1% of the Protease inhibitor Cocktail (Sigma Aldrich, Milan, Italy). 96-wells were pre-coated with a mouse full-length anti-MDM2 antibody (sc-965, Santa Cruz Biotechnology, 1:50 in 0.05% Poly-L-Ornithine) overnight at room temperature. Cell lysates (20 μg in a final volume of 100 μl) were pre-incubated with DMSO (control), or different compound concentration for 10 min at room temperature, and then transferred to the pre-coated wells for 60 min. After three quick washes with PBS/Tween 0.05% to remove unbound MDM2, each well was incubated for 15 min with 1% BSA, to block nonspecific sites, and then for 1.5 h at room temperature with a rabbit primary anti-p53 antibody (sc-6243, Santa Cruz Biotechnology, 1:250). Then, wells were washed and incubated for 1 h with an anti-rabbit HRP-conjugate antibody, and washed again. […] Blanks were obtained processing cell lysates in the absence of the primary anti-p53 antibody.

[6] = molecular target: T2, MDM2/p53 complex; assay: Association and dissociation kinetics towards MDM2 in U87MG cell lysates; type: biochemical; settings: lysates treated at ten-fold IC50, diluted 1:20, 0-180 min
Experimental: Following incubation, cell lysates were captured on wells pre-coated with MDM2 antibody for an additional 60 min.
Dissociation was initiated by the addition of 20 volumes of cold buffer, and lysates were further incubated at 4°C for the indicated times (0-180 min). Following incubation, 200 μl of the mixture were captured on wells pre-coated with MDM2 antibody for an additional 60 min.

[7] = molecular target: T3, p53/MDM2 complex (Homo sapiens, UniProt Q00987); assay: Levels of p53/MDM2 complex in U87MG whole cells (ELISA); type: cell-based
T3 construct: endogenous in cells; host or cells: U87MG human glioblastoma cells, treated whole and then lysed
Experimental: (§1) U87MG cells were treated with DMSO (control), EB148 or EB54 for different times. When indicated, after 8 h of incubation, cells were washed twice with fresh saline and cultured in drug-free medium for an additional 24 h. At the end of the treatment period, the cells were collected, and suspended in lysis buffer containing 1% of the Protease inhibitor Cocktail.

[8] = test system: p53 target genes (p53, p21 and MDM2); assay: Relative mRNA quantification of p53 target genes by real-time RT-PCR; type: cell-based, human; settings: for levels of p53 target gene transcripts after wash-out: treated for 2 h (text; legend: 16 h), washed out for 16 h in drug-free medium
Experimental: In brief, total RNA was extracted from control cells as well as from cells treated with EB148 or EB54 (1 μM) for different times (8 h, 16 h or 24 h), using RneasyH Mini Kit (Qiagen, Hilden, Germany), according to manufacturer's instructions. cDNA synthesis was performed with 500 ng of RNA using i-Script cDNA synthesis kit (BioRad, Hercules, USA). RT-PCR reactions consisted of 25 μl FluocycleH II SYBRH (Euroclone, Milano, Italy), 1.5 μl of both 10 μM forward and reverse primers (listed in [56]), 3 μl cDNA, and 19 μL of H2O. […] PCR specificity was verified by both the melting curve analysis and gel electrophoresis.

[9] = test system: p53 protein; assay: p53 protein accumulation by western blotting; type: cell-based, human; settings: for p53 protein levels after wash-out: 1 μM for 16 h, then wash-out of 16 h; for p53 protein levels: 1 μM, 16 h
Experimental: U87MG were treated with DMSO (control), EB148 or EB54 for 16 h. […] […] Glyceraldehyde-3-phosphate dehydrogenase (GAPDH) was the loading control ([…], Sigma Aldrich, Milan, Italy, 1:5000). The primary antibodies were detected using the appropriate peroxidase-conjugated secondary antibodies, which were then detected using a chemioluminescent substrate (ECL, Perkin Elmer). Densitometric analysis of the immunoreactive bands was performed using Image J Software.

[10] = test system: ERK1/2; assay: ERK1/2 phosphorylation ELISA in U87MG cells; type: cell-based, human; settings: for ERK1/2 phosphorylation: 1 μM, up to 8 h; for effect of blocking p53 on compound-mediated ERK1/2 activation: pifithrin-β 1 μM 30 min, then compound 1 μM 2 h
Experimental: Figure 10 ERK phosphorylation and levels of ERK/MDM2 complex in U87MG cells A. U87MG cells were treated with DMSO (control), 1 μΜ EB148 or 1 μΜ EB54 for the indicated times; in some experiments, after 2 h of treatment the medium was replaced by fresh medium not containing drugs for an additional 2 h. At the end of the treatment period the levels of ERK 1/2 phosphorylation were evaluated using ELISA kits, as described in the Methods section. The data are expressed as the percentage of phosphorylated ERK1/2 versus untreated cells (control), which were set at 100%. Data are the mean values ± SEM of three independent experiments performed in triplicate. Analysis of significant differences in mean ERK/MDM2 complex levels was performed using one-way ANOVA with a Bonferroni post-test: * p< 0.05, ** p< 0.01, *** p<0.001 vs. control. […] C. U87MG cells were treated with DMSO (control), 1 μΜ EB148 or 1 μΜ EB54 for the indicated times; in some experiments, after 8 h of treatment, the medium was replaced by fresh medium not containing drugs for an additional 24 h. At the end of the treatment period, U87MG cells were collected and suspended in lysis buffer. Equal amounts of cell lysates were captured on wells pre-coated with MDM2 antibody. After extensive washing, the levels of the ERK/MDM2 complex were quantified using an antibody specific for ERKs, and subsequently an HRP-conjugated antibody and a TMB substrate kit. Data are expressed as percentage of control set to 100%, and represent the mean ± SEM of three independent experiments. The significance of the differences was determined with a one-way ANOVA with Bonferroni post-test: * p<0.05, ** p<0.01, *** p<0.001 vs. control.

[11] = test system: ERK/MDM2 complex; assay: Levels of ERK/MDM2 complex in U87MG cells (ELISA); type: cell-based, human
Experimental: as §1

[12] = test system: U87MG cells; assay: U87MG cell proliferation, MTS assay; type: cell-based, human; settings: for cell proliferation 72 h after cell wash-out: U87MG, 72 h treatment, then drug-free medium 72 h
Experimental: The effects of compound treatment on U87MG cell viability and proliferation were evaluated by Trypan blue exclusion assays and MTS assay, respectively. […] For quantization of cell viability, blue and bright cells were counted, and viability was calculated as the number of living (bright) and dead (blue) cells in each well.
The absorbance of formazan at 490 nm was measured in a colorimetric assay with an automated plate reader (Victor Wallac 2, Perkin Elmer). For wash-out experiments, U87MG cells were treated with EB148 or EB54 (100 nM-10 μM) for 72 h. Following incubation, medium-containing drugs was replaced by fresh medium, and cells were allowed to growth for the indicated days. At the end of treatments, cell proliferation was measured by MTS assay. The results were calculated by subtracting the mean background from the values obtained from each evaluation and were expressed as the percentage of the control (untreated cells). Sigmoid dose-response curve was generated, from which the IC50 values were derived.

[13] = test system: U87MG cells; assay: U87MG cell viability, trypan blue exclusion test; type: cell-based, human; settings: 72 h, maximal effect at 100 μM
Experimental: The effects of compound treatment on U87MG cell viability and proliferation were evaluated by Trypan blue exclusion assays and MTS assay, respectively. U87MG cells were treated with EB148 or EB54 for 72 h. Following treatment, harvested cells were mixed with an equal volume of 0.4% trypan blue dye. For quantization of cell viability, blue and bright cells were counted, and viability was calculated as the number of living (bright) and dead (blue) cells in each well. To establish the effect of MDM2 inhibitors on cell proliferation, cells were treated for 72 h with different concentrations of each compound (0.1 nM–100 μM) for 72 h, and then MTS assay was performed according to the manufacturer's instructions.

[14] = test system: mesenchymal Stem Cells (MSCs) isolated from human bone marrow; assay: Toxicity in non-tumour cells, MSC proliferation by MTS assay; type: cell-based; settings: 72 h; EB54 at 10 μM; EB148 up to the highest concentration tested
Experimental: […]. At the end of treatments, cell proliferation was measured by MTS assay.

[15] = test system: U87MG cells; assay: Annexin V and 7-AAD staining (apoptosis); type: cell-based, human; settings: 1 μM, 24 h
Experimental: Dual staining with Annexin V coniugated to fluorescein-isothiocyanate (FITC) and 7-amino-actinomysin (7-AAD) was performed using the commercially available kit (Muse Annexin V and Dead Cell Kit; Merck KGaA, Darmstadt, Germany).
U87MG cells were treated with DMSO (control), EB54 or EB148 (1 μM) for 24 h. Both floating and adherent cells were collected, and incubated for 10 min at room temperature with the fluorescent reagent. After incubation, the percentages of living, apoptotic and dead cells were acquired and analyzed by MuseTM Cell Analyzer in accordance to the manufacture's guidelines.

T1 sequence (P30536 whole entry): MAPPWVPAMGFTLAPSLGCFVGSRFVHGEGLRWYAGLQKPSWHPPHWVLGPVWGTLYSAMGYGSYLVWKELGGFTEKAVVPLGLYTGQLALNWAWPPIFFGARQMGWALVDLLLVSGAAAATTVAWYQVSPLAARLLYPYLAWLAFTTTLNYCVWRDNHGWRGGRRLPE
T3 sequence (Q00987 whole entry, one chain of several): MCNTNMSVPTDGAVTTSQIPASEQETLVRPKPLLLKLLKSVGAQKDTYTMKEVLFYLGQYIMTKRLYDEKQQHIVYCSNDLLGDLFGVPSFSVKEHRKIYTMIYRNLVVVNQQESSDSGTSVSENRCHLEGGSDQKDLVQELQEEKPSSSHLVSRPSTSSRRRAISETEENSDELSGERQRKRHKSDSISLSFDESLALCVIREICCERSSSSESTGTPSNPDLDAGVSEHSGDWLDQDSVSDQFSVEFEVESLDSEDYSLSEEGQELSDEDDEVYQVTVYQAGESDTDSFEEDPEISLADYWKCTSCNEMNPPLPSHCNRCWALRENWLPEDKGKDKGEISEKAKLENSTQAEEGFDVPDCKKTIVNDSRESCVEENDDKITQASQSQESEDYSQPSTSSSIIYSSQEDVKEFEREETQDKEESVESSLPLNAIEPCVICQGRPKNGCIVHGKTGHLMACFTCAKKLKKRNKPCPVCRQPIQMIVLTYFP
T2 sequence (Q00987 whole entry, one chain of several): as above

SMILES | Ki [1] [nM] | koff [2] [s⁻¹] | kon [2] [M⁻¹ s⁻¹] | Kd [2] [nM] | JC-1 accumulation (Δψm) compared to control untreated mitochondria [4] | levels of p53 target gene transcripts after wash-out [8] | p53 protein levels after wash-out [9] | p53 protein levels [9] | ERK1/2 phosphorylation [10] | effect of blocking p53 on compound-mediated ERK1/2 activation [10] | cell proliferation 72 h after cell wash-out [12] | total number of living cells [13] | MSC viability/proliferation [14] | phosphatidylserine externalization (early and late apoptosis) [15] | also measured
CCOC(=O)[C@@H](Cc1ccccc1)NC(=O)[C@H](CC(C)C)NC(=O)C(=O)c1c(-c2ccccc2)[nH]c2ccc(N=C=S)cc12 [EB148] | 199 ± 18 | 8.01e-05 | 5350 | 150 | significant reduction | returned to control values | maintained high p53 levels | slight but significant increase | significant ERK phosphorylation | completely impaired | inhibition of cell proliferation was maintained | reduced the total number of living cells | did not affect MSC proliferation | significant phoshpatidilserine externalization | average peak area (stability in aqueous solution) [3]: 98.83 ± 0.47%; Δψm after mitochondria wash-out ([4]; then centrifuged and washed to remove the ligands): determined Δψm collapse; IC50 [5]: 6.81 ± 0.79 nM; activity in inhibiting p53-MDM2 complex after sample dilution [6]: maintained unchanged; p53-MDM2 complex formation after 24 h cell wash-out ([7]; 1 μM for 8 h, then 24 h wash-out): significantly lower than in the control; p53-MDM2 complex in whole cells ([7]; 1 μM, 8 h): inhibited; induction of MDM2 mRNA ([8]; 1 μM, 8 h): 6.9 fold; induction of MDM2 mRNA ([8]; 1 μM, 16 h): 8.8 fold; induction of MDM2 mRNA ([8]; 1 μM, 24 h): 2.2 fold; mRNA expression of p53 target genes ([8]; 1 μM, up to 24 h of cell treatment): sustained increase; ERK activation after cell wash-out ([10]; 1 μM for 2 h, then drug-free medium for 2 h): continued to significantly activate; ERK/MDM2 association after cell wash-out ([11]; 1 μM for 8 h, then wash-out for 24 h): remained significant; ERK/MDM2 complex formation ([11]; 1 μM, 8 and 24 h): significant and marked induction; IC50 ([12]; Homo sapiens, U-87 MG, 72 h, read-out: IC50 of cell proliferation): 91.6 ± 8.9 nM
CCOC(=O)[C@@H](Cc1ccccc1)NC(=O)[C@H](CC(C)C)NC(=O)C(=O)c1c(-c2ccccc2)[nH]c2ccccc12 [EB54] | 108 ± 10 | 0.000482 | 3600 | 134 | significant reduction | down-regulated | control levels | slight but significant increase | did not induce any significant ERK1/2 stimulation | did not significantly affect | significant recovery in proliferative activity | reduced the total number of living cells | significantly decreased | significant phoshpatidilserine externalization | mRNA expression level of p21, p53 and MDM2 ([8]; 1 μM, 8 and 16 h): significant increase; mRNA expression of p21, p53 and MDM2 ([8]; 1 μM, after 24 h): significantly lower than controls
